Measurements taken from ChEMBL document CHEMBL1156829 (Proc Natl Acad Sci U S A, 2008).

What was measured:
[1] = NOVARTIS: Cytotoxicity against human hepatocellular carcinoma cell line (Huh7); format: toxicity, cell-based, Huh-7; conditions: Huh7 cells (hepatocellular carcinoma cell line)
Plasmodium falciparum [2] = experiment: NOVARTIS: Inhibition of Plasmodium falciparum W2 (drug-resistant) proliferation in erythrocyte-based infection assay; format: functional, organism-based; conditions: Plasmodium falciparum, W2; read-out: EC50
Plasmodium falciparum [3] = experiment: NOVARTIS: Inhibition of Plasmodium falciparum 3D7 (drug-susceptible) proliferation in erythrocyte-based infection assay; format: functional, organism-based; conditions: Plasmodium falciparum, 3D7

SMILES | CC50 [1] | EC50 (Plasmodium falciparum [2]) | EC50 (Plasmodium falciparum [3])
CCN(CC)Cc1cc(Nc2ccnc3cc(Cl)ccc23)ccc1O | > 100000 nM | 13 nM | 10.3 nM
CCN(CC)CCNc1ccnc2cc(Cl)ccc12 | 29800 nM | 6.01 nM | 7.16 nM
CC1CCC2C(C)C(=O)OC3OC4(C)CCC1C32OO4 (stereo not given) | > 100000 nM | 4.58 nM | 12 nM
CCc1ccccc1N=C1c2c(cccc2[N+](=O)[O-])C(=O)C1C(C)=O (stereo not given) | > 100000 nM | 15.4 nM | 11.3 nM
CC(C=NNC(N)=S)=NNC(N)=S | > 100000 nM | 7.23 nM | 8.94 nM
COc1cc(NC(C)CCCN(Cc2ccc(F)cc2)C(=O)C(c2ccccc2)c2ccccc2)c2ncccc2c1 (stereo not given) | > 3470 nM | < 0.572 nM | > 1090 nM
CCc1ccc(C(=O)N(CCc2ccccc2)C(CC)c2nc3ccccc3c(=O)n2-c2ccccc2OC)cc1 (stereo not given) | > 9700 nM | 1.5 nM | 389 nM
CCC(c1nc2ccccc2c(=O)n1-c1ccc(F)c(Cl)c1)N(CCc1ccccc1)C(=O)COc1ccc(Cl)cc1 (stereo not given) | > 6450 nM | < 0.849 nM | 941 nM
COC(OC)C(C)=NNC(N)=S | > 100000 nM | 3.62 nM | 8.92 nM
CCOC(=O)c1c(NC(=O)c2ccccc2)sc2c(O)c(CN(CC)CC)ccc12 | > 46800 nM | 8.44 nM | 267 nM
CCCOC(=O)C1=C(C)NC2=C(C(=O)CC(c3ccc(OC)c(OC)c3)C2)C1c1ccccc1C (stereo not given) | > 100000 nM | 9.78 nM | 12.7 nM
COc1ccc(C2CC(=O)C3=C(C2)NC(C)=C(C(=O)OC(C)C)C3c2ccc(Cl)cc2Cl)cc1OC (stereo not given) | > 100000 nM | 3.91 nM | 6.3 nM
CCc1nc2nc(C)cc(Nc3ccc(I)cc3)n2n1 | > 100000 nM | < 3 nM | 260 nM
CCCCN(CCCC)C(=O)Cn1ccc(=N)c2ccccc21 | > 100000 nM | < 0.151 nM | 3740 nM
COc1cc(C(=O)NC(C)C)ccc1OC1CCN(CC(c2ccccc2)c2ccccc2)CC1 | > 100000 nM | 23.6 nM | 74.3 nM
CCCOC(=O)C1=C(C)NC2=C(C(=O)CC(c3ccc(OC)cc3)C2)C1c1ccccc1Cl (stereo not given) | > 100000 nM | 22.1 nM | 27.2 nM
COc1ccc(C2CC(=O)C3=C(C2)NC(C)=C(C(=O)OC(C)C)C3c2cccc(Cl)c2Cl)cc1OC (stereo not given) | > 87300 nM | 18.1 nM | 67.6 nM
CCCOC(=O)C1=C(C)NC2=C(C(=O)CC(c3ccc(OC)cc3)C2)C1c1ccccc1F (stereo not given) | > 100000 nM | 20.1 nM | 55 nM
CCCOC(=O)C1=C(C)NC2=C(C(=O)CC(c3ccc(Cl)cc3)C2)C1c1ccccc1F (stereo not given) | > 100000 nM | 18.6 nM | 254 nM
COCCOC(=O)C1=C(C)NC2=C(C(=O)CC(c3ccc(OC)c(OC)c3)C2)C1c1ccccc1Cl (stereo not given) | > 100000 nM | 13.2 nM | 50.4 nM
CC(=O)c1ccc(NC(=O)CSc2nnc3c4c(-c5ccc(F)cc5)csc4ncn23)cc1 | > 100000 nM | 23.9 nM | > 12500 nM
CCOC(=O)c1cnc2cc(OCC3CC3)c(OCC3CC3)cc2c1O | > 100000 nM | < 0.0706 nM | < 5.72 nM

SMILES | CC50 [1] | EC50 (Plasmodium falciparum [2]) | EC50 (Plasmodium falciparum [3])
COc1ccc(C2CC(=O)C3=C(C2)NC(C)=C(C(=O)OC(C)C)C3c2ccc(F)cc2)cc1 (stereo not given) | > 100000 nM | 23.2 nM | 83.4 nM
CCOC(=O)C1=C(C)NC2=C(C(=O)CC(c3ccc(OC)c(OC)c3)C2)C1c1c(F)cccc1Cl (stereo not given) | > 100000 nM | 23 nM | 76.7 nM
CCCOC(=O)C1=C(C)NC2=C(C(=O)CC(c3ccc(OC)c(OC)c3)C2)C1c1ccc([N+](=O)[O-])cc1 (stereo not given) | > 100000 nM | 20.5 nM | 25.9 nM
COc1ccc(OC)c(-c2ccc(O)c(CN3CCC(c4ccccc4)CC3)c2)c1 | > 100000 nM | 9.12 nM | 508 nM
CCOC(=O)C1=C(C)NC2=C(C(=O)CC(c3ccc(OC)c(OC)c3)C2)C1c1ccccc1Cl (stereo not given) | > 100000 nM | 8.74 nM | 5.05 nM
CCOC(=O)c1cc(-c2ccc(OC)cc2)n(CCC(=O)Nc2cccc(C(C)=O)c2)c1C | > 100000 nM | 8.49 nM | 21.8 nM
CCOC(=O)C1=C(C)NC2=C(C(=O)CC(c3ccc(OC)c(OC)c3)C2)C1c1ccc(F)cc1 (stereo not given) | > 100000 nM | 12.4 nM | 18.3 nM
CCCOC(=O)C1=C(C)NC2=C(C(=O)CC(c3ccc(OC)c(OC)c3)C2)C1c1cccc(Cl)c1Cl (stereo not given) | > 100000 nM | 11.9 nM | 48.4 nM
CCCCOc1ccc(N(C(C)=O)C2=C(N3CCCCC3)C(=O)c3ccccc3C2=O)cc1 | 54400 nM | 4.14 nM | 5.64 nM
COc1ccc(C2CC(=O)C3=C(C2)NC(C)=C(C(=O)OC(C)C)C3c2ccccc2C)cc1OC (stereo not given) | > 100000 nM | 14.5 nM | 9.98 nM
COc1ccc(C2CC(=O)C3=C(C2)NC(C)=C(C(=O)OC2CCCC2)C3c2ccccc2Cl)cc1OC (stereo not given) | > 100000 nM | 7.38 nM | 55.8 nM
COC(=O)C1=C(C)NC(=Cc2cc(C)n(-c3cc(C)ccc3C)c2C)C1=O | > 100000 nM | 18.4 nM | 9.53 nM
O=C1N(Cc2cc3ccccc3s2)CC2CN(Cc3cccc4c3OCO4)CCN12 (stereo not given) | > 10000 nM | < 0.572 nM | 727 nM
CN(C)CC(C)(C)CNCc1cc(-c2ccccc2)ccc1O | 38000 nM | 6.53 nM | 66.1 nM
CC(C)CNCc1cc(-c2ccc(F)cc2)ccc1O | 58600 nM | 10 nM | 104 nM
C=CC1CN2CCC1C(C(O)c1ccnc3ccc(OC)cc13)C2 (stereo not given) | > 100000 nM | 15.1 nM | 7.21 nM
COC(=O)C1=C(C)NC2=C(C(=O)CC(c3ccc(OC)c(OC)c3)C2)C1c1ccc(Cl)cc1Cl (stereo not given) | > 100000 nM | 14.3 nM | 169 nM
COC(=O)C1=C(C)NC2=C(C(=O)CC(c3ccc(OC)c(OC)c3)C2)C1c1ccc(F)cc1 (stereo not given) | > 100000 nM | 14 nM | 27.9 nM
COCCOC(=O)C1=C(C)NC2=C(C(=O)CC(c3ccc(OC)c(OC)c3)C2)C1c1ccc(Cl)cc1Cl (stereo not given) | > 100000 nM | 13.1 nM | 22.4 nM
COc1ccc(C2CC(=O)C3=C(C2)NC(C)=C(C(=O)OC2CCCC2)C3c2ccccc2C)cc1OC (stereo not given) | > 100000 nM | 13.1 nM | 33.4 nM
CCOC(=O)C1=C(C)NC2=C(C(=O)CC(c3ccc(OC)c(OC)c3)C2)C1c1ccc(Cl)cc1Cl (stereo not given) | > 100000 nM | 11.6 nM | 25.4 nM
CCCOC(=O)C1=C(C)NC2=C(C(=O)CC(c3ccc(OC)c(OC)c3)C2)C1c1ccccc1Br (stereo not given) | > 100000 nM | 11.2 nM | 76.6 nM

SMILES | CC50 [1] | EC50 (Plasmodium falciparum [2]) | EC50 (Plasmodium falciparum [3])
CCCOC(=O)C1=C(C)NC2=C(C(=O)CC(c3ccc(OC)c(OC)c3)C2)C1c1ccccc1F (stereo not given) | > 100000 nM | 5.41 nM | 6.71 nM
CCOC(=O)C1=C(C)NC2=C(C(=O)CC(c3ccc(OC)c(OC)c3)C2)C1c1ccc(Br)cc1 (stereo not given) | > 100000 nM | 4.81 nM | 18.2 nM
CCOc1cc2c(cc1OCC)C(c1ccc(O)c(Cl)c1)NCC2 (stereo not given) | > 97900 nM | 12.5 nM | 157 nM
COc1ccc(C2CC(=O)C3=C(C2)NC(C)=C(C(=O)OC2CCCC2)C3c2ccc([N+](=O)[O-])cc2)cc1OC (stereo not given) | > 100000 nM | 14.8 nM | 31 nM
CCOC(=O)C(=O)N1c2ccc(OCC)cc2-c2c(ssc2=S)C1(C)C | > 100000 nM | 25.2 nM | 252 nM
OC1=C2C(=Nc3ccccc3SC2c2cccs2)c2ccccc21 (stereo not given) | 49500 nM | < 2.47 nM | 42.8 nM
COc1ccc(C2CC3=NC(C)=C(C(=O)OC(C)C)C(c4ccccc4Cl)C3=C(O)C2)cc1OC (stereo not given) | > 100000 nM | 4.11 nM | 6.21 nM
CN(Cc1cc(-c2ccc(F)cc2)ccc1O)CC(O)c1ccccc1 (stereo not given) | > 70900 nM | 14.2 nM | 223 nM
COc1cccc(-c2ccc(O)c(CNCC3CC4C=CC3C43CC3)c2)n1 (stereo not given) | > 85900 nM | 19.9 nM | 153 nM
CCOC(=O)c1c(NC(C)=O)sc2c(O)c(CNC3CCCCC3)ccc12 | > 100000 nM | 21.4 nM | 80.5 nM
COc1ccc(-n2c(SCC(=O)Nc3cc(Cl)ccc3OC)nnc2-c2ccccc2)cc1 | > 11400 nM | < 1.06 nM | > 1100 nM
COCCOC(=O)C1=C(C)NC2=C(C(=O)CC(c3ccc(OC)c(OC)c3)C2)C1c1ccccc1F (stereo not given) | > 100000 nM | 11.8 nM | 82 nM
CCCOC(=O)C1=C(C)NC2=C(C(=O)CC(c3ccc(OC)c(OC)c3)C2)C1c1ccc(Cl)cc1Cl (stereo not given) | > 100000 nM | 4.36 nM | 7.62 nM
CC1N=C(c2ccc(NC(=O)c3ccc(C(=O)Nc4ccc(C5=NC(C)C(C)N5)cc4)cc3)cc2)NC1C (stereo not given) | > 100000 nM | 14.8 nM | 57.6 nM
CN1C(=O)N(C)C(NNC(N)=S)C1NNC(N)=S (stereo not given) | > 100000 nM | 6.21 nM | 8.92 nM
COc1cc(NC(C)CCCN(Cc2ccc(Cl)cc2)C(=O)Nc2ccccc2F)c2ncccc2c1 (stereo not given) | > 8250 nM | < 0.572 nM | > 1090 nM
CCOC(=O)C(=O)N1c2ccc(OC)cc2-c2c(ssc2=S)C1(C)C | > 100000 nM | 3.19 nM | 2.43 nM
CCOC(=O)C1=C(C)NC2=C(C(=O)CC(c3ccc(OC)c(OC)c3)C2)C1c1ccccc1F (stereo not given) | > 100000 nM | 26.4 nM | 27.6 nM
Oc1ccc(-c2ccc(F)cc2)cc1CN1CCCCCC1 | > 100000 nM | 19.6 nM | 110 nM
CCC(c1nc2ccccc2c(=O)n1-c1ccccc1OC)N(CCc1ccccc1)C(=O)CCc1ccccc1 (stereo not given) | 4170 nM | < 0.572 nM | 134 nM
CCCOC(=O)C1=C(C)NC2=C(C(=O)CC(c3ccc(OC)cc3)C2)C1c1ccc(Cl)cc1Cl (stereo not given) | > 100000 nM | 16.2 nM | 36.9 nM
